Read-outs that look alike come from different tables or passages of the source.
What was measured:
[1] = system: acutely dissociated and purified rat OPCs; experiment: Acute OL differentiation assay (MBP expression/cell, immunofluorescent image quantification); format: cell-based; conditions: for activation at 2 µM / activation at 10 µM / activation at 0.4 µM / EC50: Rattus norvegicus; for EC50: average EC50 for induction of OL differentiation from independent biological replicates, eight concentrations; for hit in OL differentiation assay, MRF-TMC: ● = confirmed hit in this paper's assay
Summary of the method: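 Oligodendrocyte precursor cells were enriched from P6-P7 Sprague–Dawley rat brains by immunopanning (RAN-2 and GalC depletion, O4 selection), plated at 5000 cells/well in serum-free, mitogen-free differentiation media on PDL/laminin 96-well view plates, centrifuged at 200×g, and pre-incubated 1–2 h before test compounds were added in quadruplicate. On DIV4, cells were fixed, stained for MBP and DAPI, imaged automatically, and MBP expression per cell was quantified.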

expanded OPCs = experiment: cells; conditions: for viability at 0.1 µM / viability at 1 µM / viability at 10 µM: Rattus norvegicus, 72 h
Summary of the method: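 Expanded OPCs seeded at 10,000 cells/well in differentiation media, then exposed to NCC library compounds at 10, 1 and 0.1 µM (quadruplicate, 0.1% DMSO) for three days. Viability read as alamarBlue fluorescence (560/590 nm) after 4 h at 37 °C; tunicamycin 5 ng/ml served as toxicity control.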

[2] = 2 uM test compound, relative to quetiapine, sheet "All OLga data", read-out: OL differentiation, 2 uM (% Quet)
[3] = 10 uM test compound, relative to quetiapine, sheet "All OLga data", read-out: OL differentiation, 10 uM (% Quet)
[4] = read-out: 0.1 µM (% DMSO), alamarBlue viability of expanded OPCs, compound at 0.1 µM, sheet All Tox data
[5] = read-out: 1 µM (% DMSO), alamarBlue viability of expanded OPCs, compound at 1 µM, sheet All Tox data
[6] = read-out: 10 µM (% DMSO), alamarBlue viability of expanded OPCs, compound at 10 µM, sheet All Tox data
[7] = test compound at 2 uM, MBP expression relative to quetiapine, NCC library screen, sheet "All OLga data", read-out: 2 uM (% Quet)
[8] = test compound at 10 uM, MBP expression relative to quetiapine, NCC library screen, sheet "All OLga data", read-out: 10 uM (% Quet)
[9] = alamarBlue viability of expanded OPCs, compound at 0.1 µM, relative to DMSO control
[10] = alamarBlue viability of expanded OPCs, compound at 1 µM, relative to DMSO control
[11] = alamarBlue viability of expanded OPCs, compound at 10 µM, relative to DMSO control
[12] = 0.4 uM test compound, relative to quetiapine, sheet "All OLga data", read-out: OL differentiation, 0.4 uM (% Quet)
[13] = test compound at 2 uM, NCC library screen, sheet "All OLga data", relative to quetiapine, read-out: 2 uM (% Quet)
[14] = read-out: 0.1 µM (% DMSO), alamarBlue viability, NCC library compound at 0.1 µM, sheet "All Tox data"
[15] = read-out: 1 µM (% DMSO), alamarBlue viability, NCC library compound at 1 µM, sheet "All Tox data"
[16] = read-out: 10 µM (% DMSO), alamarBlue viability, NCC library compound at 10 µM, sheet "All Tox data"

`C[C@H]1C[C@H]2[C@@H]3CCC4=CC(=O)C=C[C@]4(C)[C@@]3(Cl)[C@@H](O)C[C@]2(C)[C@@]1(O)C(=O)CO` [Beclomethasone] was tested, and the “2 uM (% Quet)” value ([1]; test compound at 2 uM, MBP expression relative to quetiapine, NCC library screen, sheet "All OLga data") was -121.4 % Quet, the “2 uM (% Quet)” value ([1]; test compound at 2 uM, NCC library screen, sheet "All OLga data", relative to quetiapine) was -1.4 % Quet and the “10 uM (% Quet)” value ([1]; test compound at 10 uM, MBP expression relative to quetiapine, NCC library screen, sheet "All OLga data") was -191.3 % Quet. For the same compound, the “10 uM (% Quet)” value ([1]; test compound at 10 uM, NCC library screen, sheet "All OLga data", relative to quetiapine) was -5.2 % Quet, the “0.1 µM (% DMSO)” value (expanded OPCs) was 90.7 % DMSO and the “1 µM (% DMSO)” value (expanded OPCs) was 90.4 % DMSO. For the same compound, the “10 µM (% DMSO)” value (expanded OPCs) was 81.7 % DMSO, the “0.1 µM (% DMSO)” value (expanded OPCs; alamarBlue viability, NCC library compound at 0.1 µM, sheet "All Tox data") was 110.9 % DMSO and the “1 µM (% DMSO)” value (expanded OPCs; alamarBlue viability, NCC library compound at 1 µM, sheet "All Tox data") was 114.8 % DMSO. For the same compound, the “10 µM (% DMSO)” value (expanded OPCs; alamarBlue viability, NCC library compound at 10 µM, sheet "All Tox data") was 117.6 % DMSO.
Work on `CCN(CC)CCOC(=O)C(O)(c1ccccc1)c1ccccc1` [Benactyzine] yielded an activation at 2 µM ([1]; read-out: 2 uM (% Quet)) of -1.9%, an activation at 10 µM ([1]; read-out: 10 uM (% Quet)) of -2.1% and a viability at 0.1 µM (expanded OPCs; read-out: 0.1 µM (% DMSO)) of 100%. The viability at 1 µM (expanded OPCs; read-out: 1 µM (% DMSO)) was 88.2% and the viability at 10 µM (expanded OPCs; read-out: 10 µM (% DMSO)) was 90%.
In the case of `CCOC(=O)[C@H](CCc1ccccc1)N[C@H]1CCc2ccccc2N(CC(=O)O)C1=O` [Benazepril], the activation at 2 µM [1, 2] is reported as -27.7%, the activation at 10 µM [1, 3] is reported as -26.2% and the viability at 0.1 µM (expanded OPCs; [4]) is reported as 84.6%. For the same compound, the viability at 1 µM (expanded OPCs; [5]) was 88.2% and the viability at 10 µM (expanded OPCs; [6]) was 93.6%.
In the case of `NS(=O)(=O)c1cc2c(cc1C(F)(F)F)NC(Cc1ccccc1)NS2(=O)=O` (stereo not shown) [Bendroflumethiazide], the activation at 2 µM [1, 7] is reported as -41.7%, the activation at 10 µM [1, 8] is reported as -47.6% and the “0.1 µM (% DMSO)” value (expanded OPCs; [9]) is reported as 95.4 % DMSO. For the same compound, the “1 µM (% DMSO)” value (expanded OPCs; [10]) was 93.1 % DMSO and the “10 µM (% DMSO)” value (expanded OPCs; [11]) was 98.5 % DMSO.
In the case of `COC(=O)C1=C(C)NC(C)=C(C(=O)OC2CCCN(Cc3ccccc3)C2)C1c1cccc([N+](=O)[O-])c1` (stereo not shown) [Benidipine], the activation at 0.4 µM [1, 12] is reported as 7.1%, the activation at 2 µM [1, 2] is reported as 3.1% and the viability at 0.1 µM (expanded OPCs; [4]) is reported as 84.6%. It also gave a viability at 1 µM (expanded OPCs; [5]) of 93% and a viability at 10 µM (expanded OPCs; [6]) of 11.6%.
`CC(COc1ccccc1Cc1ccccc1)N1CCCCC1` (stereo not shown) [Benproperine, reference compound] showed an activation at 0.4 µM [1, 12] of 82.1%, an activation at 2 µM [1, 2] of 99.4% and an EC50 [1] of 0.8 µM. The “hit in OL differentiation assay, MRF-TMC” value [1] was “●”, the viability at 0.1 µM (expanded OPCs; [4]) was 105% and the viability at 1 µM (expanded OPCs; [5]) was 123%. It also gave a viability at 10 µM (expanded OPCs; [6]) of 20.9%.
With `CN1[C@@H]2CC[C@H]1C[C@@H](OC(c1ccccc1)c1ccccc1)C2` [Benzatropine] the activation at 0.4 µM ([1]; test compound at 0.4 uM, MBP expression relative to quetiapine, NCC library screen, sheet "All OLga data", read-out: 0.4 uM (% Quet)) was 123%, the activation at 2 µM [1, 7] was 102% and the “0.1 µM (% DMSO)” value (expanded OPCs; [9]) was 139.9 % DMSO. The “1 µM (% DMSO)” value (expanded OPCs; [10]) was 133.9 % DMSO and the “10 µM (% DMSO)” value (expanded OPCs; [11]) was 38.5 % DMSO.
`CCc1oc2ccccc2c1C(=O)c1cc(Br)c(O)c(Br)c1` [Benzbromarone] showed an activation at 0.4 µM ([1]; test compound at 0.4 uM, NCC library screen, sheet "All OLga data", relative to quetiapine, read-out: 0.4 uM (% Quet)) of -1.1%, an activation at 2 µM [1, 13] of 23.7% and a viability at 0.1 µM (expanded OPCs; [14]) of 95.3%. For the same compound, the viability at 1 µM (expanded OPCs; [15]) was 93.2% and the viability at 10 µM (expanded OPCs; [16]) was 35.6%.
In the case of `CC(C)NCC(O)COc1ccc(CCOCC2CC2)cc1` (stereo not shown) [Betaxolol, reference compound], the activation at 2 µM [1, 2] is reported as 32.8%, the activation at 10 µM [1, 3] is reported as 51.8% and the EC50 [1] is reported as 4.2 µM. For the same compound, the “hit in OL differentiation assay, MRF-TMC” value [1] was “●”, the viability at 0.1 µM (expanded OPCs; [14]) was 102% and the viability at 1 µM (expanded OPCs; [15]) was 97.8%. It also gave a viability at 10 µM (expanded OPCs; [16]) of 104%.
With `CC(C[N+](C)(C)C)OC(N)=O` (stereo not shown) [Bethanechol] the activation at 2 µM [1, 7] was -1%, the activation at 10 µM [1, 8] was -21.7% and the “0.1 µM (% DMSO)” value (expanded OPCs; [9]) was 87.6 % DMSO. For the same compound, the “1 µM (% DMSO)” value (expanded OPCs; [10]) was 93.0 % DMSO and the “10 µM (% DMSO)” value (expanded OPCs; [11]) was 88.2 % DMSO.
`CC(O)(CS(=O)(=O)c1ccc(F)cc1)C(=O)Nc1ccc(C#N)c(C(F)(F)F)c1` (stereo not shown) [Bicalutamide] was tested, and the activation at 2 µM [1, 2] was -3%, the activation at 10 µM [1, 3] was 6.9% and the viability at 0.1 µM (expanded OPCs; [4]) was 93.3%. For the same compound, the viability at 1 µM (expanded OPCs; [5]) was 96% and the viability at 10 µM (expanded OPCs; [6]) was 119%.
Work on `c1ccc(-c2ccc(C(c3ccccc3)n3ccnc3)cc2)cc1` (stereo not shown) [Bifonazole, reference compound] yielded an activation at 0.4 µM [1, 12] of 67.3%, an activation at 2 µM [1, 2] of 105% and an EC50 [1] of 1.7 µM. The “hit in OL differentiation assay, MRF-TMC” value [1] was “●”, the viability at 0.1 µM (expanded OPCs; [14]) was 121% and the viability at 1 µM (expanded OPCs; [15]) was 187%. It also gave a viability at 10 µM (expanded OPCs; [16]) of 11.9%.
In the case of `O=C1CC2(CCCC2)CC(=O)N1CCNCC1COc2ccccc2O1` (stereo not shown) [Binospirone], the activation at 2 µM [1, 13] is reported as 37.7%, the activation at 10 µM ([1]; test compound at 10 uM, NCC library screen, sheet "All OLga data", relative to quetiapine, read-out: 10 uM (% Quet)) is reported as 14.1% and the viability at 0.1 µM (expanded OPCs; [14]) is reported as 96%. The viability at 1 µM (expanded OPCs; [15]) was 97.6% and the viability at 10 µM (expanded OPCs; [16]) was 97.4%.
